Here are results for 9 molecules from patent publication US8309546B2, “Morpholinopurine derivatives” (Daiichi Sankyo Company, Limited, priority 2008, dated 2012).

Each structure is given as a SMILES string.

In one experiment the target is PI3Kα (Homo sapiens, UniProt P42336). As to the kind of experiment: PI3K kinase activity inhibition assay. The experiment is classed as biochemical. To be noted: Kinase-Glo Plus ATP detection, read-out: IC50 against PI3K. The protocol: PI3Kα kinase activity was determined in the presence and absence of a test compound. The test compound was dissolved in DMSO and diluted serially with an ATP solution (30 μm ATP, 50 mM HEPES, pH 7.4, 50 mM NaCl, 0.05% CHAPS, 10 mM MgCl2, and 5 mM dithiothreitol [DTT]). First, 7 μl each of the serially diluted test compound solutions was added to each well of a black 384-well plate. Subsequently, 7 μl of a phosphatidylinositol 4,5-bisphosphate (PIP2) solution (45 μm PIP2, 50 mM HEPES, pH 7.4, 50 mM NaCl, 0.05% CHAPS, 10 mM MgCl2, and 5 mM DTT) was added to each well of the 384-well plate. Finally, 7 μl of a solution containing PI3Kα (50 nM PI3Kα, 50 mM HEPES, pH 7.4, 50 mM NaCl, 0.05% CHAPS, 10 mM MgCl2, and 5 mM DTT) was added to each well of the 384-well plate to initiate a reaction. The mixture was reacted at room temperature for 2 hours and then 21 μl of the Kinase-Glo Plusreagent (Promega) was, added to each well of the 384-well plate to terminate the reaction. After the termination of the reaction, the solution was left standing for 15 minutes and then luminescence was measured with ARVO (PerkinElmer Co., Ltd.) to detect ATP remaining in the reaction solution.
Chain of PI3Kα (P42336 whole entry, species assumed): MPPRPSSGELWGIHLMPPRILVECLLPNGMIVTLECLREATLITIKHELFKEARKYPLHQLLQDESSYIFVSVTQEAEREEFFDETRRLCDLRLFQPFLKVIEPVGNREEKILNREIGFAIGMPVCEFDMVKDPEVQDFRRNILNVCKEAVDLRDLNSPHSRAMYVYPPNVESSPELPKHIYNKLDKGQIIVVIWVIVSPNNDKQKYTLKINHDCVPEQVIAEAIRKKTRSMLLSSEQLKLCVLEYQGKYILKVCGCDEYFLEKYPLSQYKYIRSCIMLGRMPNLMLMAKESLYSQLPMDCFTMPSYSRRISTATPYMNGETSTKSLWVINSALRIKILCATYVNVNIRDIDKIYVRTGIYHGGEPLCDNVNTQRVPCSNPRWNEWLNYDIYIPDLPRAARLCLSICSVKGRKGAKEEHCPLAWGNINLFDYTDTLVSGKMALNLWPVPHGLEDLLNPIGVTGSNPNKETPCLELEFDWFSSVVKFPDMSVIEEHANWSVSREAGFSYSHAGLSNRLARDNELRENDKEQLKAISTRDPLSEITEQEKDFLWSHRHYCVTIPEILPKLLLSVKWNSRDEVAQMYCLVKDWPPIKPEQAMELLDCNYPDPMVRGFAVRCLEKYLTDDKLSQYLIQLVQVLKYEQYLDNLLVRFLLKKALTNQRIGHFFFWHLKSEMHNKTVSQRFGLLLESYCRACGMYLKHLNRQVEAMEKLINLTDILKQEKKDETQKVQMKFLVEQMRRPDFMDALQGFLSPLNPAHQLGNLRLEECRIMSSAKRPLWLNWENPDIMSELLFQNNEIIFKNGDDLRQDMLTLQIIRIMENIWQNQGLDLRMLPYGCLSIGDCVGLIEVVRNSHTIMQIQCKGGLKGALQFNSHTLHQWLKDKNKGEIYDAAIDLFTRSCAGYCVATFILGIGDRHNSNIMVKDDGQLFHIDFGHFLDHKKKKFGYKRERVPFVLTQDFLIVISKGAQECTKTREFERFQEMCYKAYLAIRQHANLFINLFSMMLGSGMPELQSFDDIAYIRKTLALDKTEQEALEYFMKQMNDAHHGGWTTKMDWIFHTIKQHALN
Chain of PI3Kα (P27986 whole entry partner, species assumed): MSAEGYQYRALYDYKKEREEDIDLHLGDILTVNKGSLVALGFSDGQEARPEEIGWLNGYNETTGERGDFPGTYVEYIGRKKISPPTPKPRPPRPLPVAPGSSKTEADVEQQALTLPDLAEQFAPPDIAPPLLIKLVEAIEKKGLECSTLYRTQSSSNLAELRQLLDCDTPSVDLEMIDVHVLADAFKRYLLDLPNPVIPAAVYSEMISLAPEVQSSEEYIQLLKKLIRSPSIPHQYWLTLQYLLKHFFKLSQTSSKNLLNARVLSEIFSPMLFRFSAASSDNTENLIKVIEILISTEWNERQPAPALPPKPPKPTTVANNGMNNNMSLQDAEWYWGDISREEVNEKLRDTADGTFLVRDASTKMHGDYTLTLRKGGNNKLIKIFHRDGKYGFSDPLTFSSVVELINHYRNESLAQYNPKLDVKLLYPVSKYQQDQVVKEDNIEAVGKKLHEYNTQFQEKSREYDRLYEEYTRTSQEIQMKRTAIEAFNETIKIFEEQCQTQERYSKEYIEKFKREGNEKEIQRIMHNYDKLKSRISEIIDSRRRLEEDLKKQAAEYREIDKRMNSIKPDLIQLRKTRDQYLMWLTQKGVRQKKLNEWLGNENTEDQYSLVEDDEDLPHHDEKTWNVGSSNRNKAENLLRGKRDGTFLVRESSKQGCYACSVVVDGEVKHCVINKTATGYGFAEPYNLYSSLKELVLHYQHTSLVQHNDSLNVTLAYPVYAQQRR
The amount of ATP consumed in the reaction was obtained for each well and used as an indicator of PI3Kαkinase activity. The PI3Kα kinase activity in wells not containing the test compound was calculated by the following formula (1). Furthermore, the PI3Kα kinase activity in wells containing the test compound was calculated by the following formula (2). The PI3Kα inhibitory activity (%) of the test compound was calculated by the following formula (3). PI3Kα kinase activity in wells not containing the test compound=B−C (1) PI3Kα kinase activity in wells containing the test compound=B−P (2) PI3Kα inhibitory activity (%) of test compound=100−100×[(B−P)/(B−C)] (3) B: Measured value in wells not containing PI3Kα or the test compound C: Measured value in wells containing PI3Kα and not containing the test compound P: Measured value in wells containing PI3Kα and the test compound
Furthermore, an optimal curve was calculated with Graph Pad Prism 4 using concentrations of the serially diluted test compound solutions and PI3Kα inhibitory activity (%) at each concentration to obtain the concentration showing 50% inhibition as the IC50 value of PI3Kα inhibitory activity.
Background: Kinase-Glo reads ATP consumption through a luciferase reaction.

Experiment [1] deals with T1, human mTOR (His-tagged mTOR (1362C)) (Homo sapiens, UniProt P42345).
T1 construct: the 1362 to 2549 amino acid portion on the C terminus side of human mTOR; His tag (N); made in house
T1 sequence (P42345 1362-2549): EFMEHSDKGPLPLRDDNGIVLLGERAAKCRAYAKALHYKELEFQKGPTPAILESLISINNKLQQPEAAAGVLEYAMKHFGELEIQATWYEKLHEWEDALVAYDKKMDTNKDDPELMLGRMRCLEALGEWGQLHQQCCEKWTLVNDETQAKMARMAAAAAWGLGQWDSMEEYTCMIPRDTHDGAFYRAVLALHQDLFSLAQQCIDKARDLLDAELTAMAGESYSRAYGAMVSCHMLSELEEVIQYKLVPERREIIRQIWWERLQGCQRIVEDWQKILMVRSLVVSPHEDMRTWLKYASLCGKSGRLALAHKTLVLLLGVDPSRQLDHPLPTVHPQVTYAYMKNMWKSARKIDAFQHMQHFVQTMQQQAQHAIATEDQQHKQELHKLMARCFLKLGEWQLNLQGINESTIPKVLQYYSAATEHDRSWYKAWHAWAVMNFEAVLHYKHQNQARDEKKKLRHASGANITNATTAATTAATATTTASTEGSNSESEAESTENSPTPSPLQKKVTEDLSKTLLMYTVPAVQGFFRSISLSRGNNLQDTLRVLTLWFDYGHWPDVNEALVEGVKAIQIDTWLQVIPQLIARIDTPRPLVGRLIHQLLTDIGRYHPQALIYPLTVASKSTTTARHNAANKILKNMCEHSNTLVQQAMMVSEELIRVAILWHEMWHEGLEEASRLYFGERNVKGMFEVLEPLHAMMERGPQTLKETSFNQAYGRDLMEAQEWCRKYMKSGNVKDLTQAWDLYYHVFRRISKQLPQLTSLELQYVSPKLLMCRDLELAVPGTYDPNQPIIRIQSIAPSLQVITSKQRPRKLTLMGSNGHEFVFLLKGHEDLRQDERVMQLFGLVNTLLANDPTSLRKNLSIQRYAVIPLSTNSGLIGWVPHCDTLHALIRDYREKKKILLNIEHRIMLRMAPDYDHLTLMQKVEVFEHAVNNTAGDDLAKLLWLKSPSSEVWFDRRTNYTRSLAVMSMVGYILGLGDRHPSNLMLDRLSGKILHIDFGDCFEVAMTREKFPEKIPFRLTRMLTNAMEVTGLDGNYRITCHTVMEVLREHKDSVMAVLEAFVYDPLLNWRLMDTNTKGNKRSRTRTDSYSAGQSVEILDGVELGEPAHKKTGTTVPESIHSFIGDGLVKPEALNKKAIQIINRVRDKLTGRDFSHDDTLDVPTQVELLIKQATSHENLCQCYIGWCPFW
Description: mTOR kinase activity inhibition assay. The format is biochemical. The note with it: HTRF, read-out: IC50 against mTOR. How it is done:
The mTOR kinase activity was determined in the presence and absence of a test compound. A substrate peptide is phosphorylated by mTOR kinase activity. A complex of streptavidin-XL665 and anti-phosphorylated S6K (Thr389) antibody-anti-mouse IgG-cryptate binds to this phosphorylated peptide. At this time, irradiation of excitation light induces transfer of fluorescence resonance energy from the excited cryptate to XL665, emitting fluorescence at 665 nm. Utilizing this principle, mTOR kinase activity was detected. When the mTOR inhibitor is present, phosphorylation of a substrate peptide is inhibited, and the biding of the above-mentioned complex to the substrate peptide is inhibited.
A His tag was introduced into the N terminus end of the 1362 to 2549 amino acid portion on the C terminus side of human mTOR, and a cell line was prepared, so that His-tagged mTOR should be constantly expressed in a HEK293 cell. A cell lysate was prepared from this HEK293 cell which constantly expressed His-tagged mTOR (1362C), and a crude product of His-tagged mTOR (1362C) was obtained by a usual method utilizing His tag.
Subsequently, an mTOR enzyme solution was prepared which contained the above-mentioned His-tagged mTOR (1362C) enzyme and 8 μg/ml biotinylated peptide (Biotin-Ahx-[…]-amide [Sigma]), as well as 50 mM HEPES (pH 7.5), 20 mM MnCl2, 1 mg/ml BSA, a suitable amount of protease inhibitor cocktail (Complete EDTA free, Roche Ltd.), 100 ng/ml calyculin A, and 4 μg/ml cantharidin as other components.
The test compound was dissolved in dimethyl sulfoxide (DMSO) and serially diluted with 20 μm ATP solution (50 mM HEPES (pH 7.5), 20 μM ATP) to obtain concentrations required for the assay. 5 μl of this compound solution was added to each well of a 384-well small volume white plate manufactured by Greiner Bio-One Co., Ltd.
5 μl of the mTOR enzyme solution was added to the above-mentioned well containing the test compound and the resulting mixture was left standing for 3 hours room temperature to proceed an enzymatic reaction.
The same procedure was performed using a solution obtained by dissolving DMSO in 20 μM ATP solution as a positive control and a solution obtained by dissolving DMSO in 50 mM HEPES buffer (pH 7.5) as a negative control.
After the enzymatic reaction, 5 μl each of an europium solution (a solution obtained by dissolving anti-mouse IgG-cryptate [SCETI Medical Labo K.K.] and anti-phosphorylation S6K [Thr389] antibody [Cell Signaling Technology Inc.] in 50 mM HEPES [pH 7.5], 100 mM EDTA, and 1.5 mg/ml BSA) and an XL665 solution (a solution obtained by dissolving Streptavidin-XL 665 [SCETI Medical Labo K.K.] in 50 mM HEPES [pH 7.5], 100 mM EDTA, 0.8 M KF, and 1.5 mg/ml BSA) were added in this order and mixed and the resulting mixture was left standing overnight at 4° C. On the following day, the mixture was returned to room temperature and then irradiated with 337-nm excitation light and fluorescence at 620 and 665 nm was measured with RUBYstar (BMG LABTECH JAPAN Ltd.).
mTOR inhibitory activity (%) was calculated using the ratio calculated from the measured values as an indicator of enzyme activity. Here, the ratio was calculated by the following formula (1). Ratio=10,000×fluorescence at 665 nm/fluorescence at 620 nm (1)
mTOR enzyme inhibitory activity (%) was calculated by the following formula (2). mTOR enzyme inhibitory activity (%)=100×[(P−S)/(P−N)] (2) P: Ratio in positive control well N: Ratio in negative control well S: Ratio in well containing the test compound
Furthermore, an optimal curve was created using the concentrations of the serially diluted test compound solutions and mTOR enzyme inhibitory activity (%) at each concentration to obtain the concentration showing 50% inhibition as the IC50 value of mTOR enzyme inhibitory activity.
(In general: TR-FRET usually uses a lanthanide donor and a delayed reading to cut background.)

Experiment [2] relates to human endometrial cancer cell strain AN3CA. Description: Cell growth inhibition test (MTT), AN3CA. The format is cell-based. The note with it: AN3-CA, 72 h, 3 days culture, read-out: concentration exhibiting anti-cell effect (GI50). How it is done: (§1) After a cultured cancer cell strain was treated with a test compound for a predetermined period, a cell growth inhibition test was performed by measuring the living cell count by the 3-(4,5-dimethylthiazol-2-yl)-2,5-diphenyltetrazoliumbromide (MTT) method.
(§2) Human endometrial cancer cell strain AN3CA, human ovary cancer cell strain IGROV1, and human colon cancer cell strain HT29 were seeded in a 96-well plate at 5000, 1000, and 5000 cells, respectively, per well. On the following day of seeding, a test compound having a predetermined concentration was added and the culture was continued at 37° C. in 5% CO2 for 3 days. On the final day of culture, an MTT reaction solution was added and the resulting mixture was reacted for 4 hours to form formazan by dehydrogenases contained in living cells. Subsequently, the culture broth was removed, DMSO was added to solubilize formazan, and the amount of produced formazan was determined by measuring absorbance at 540 nm using a microplate reader.
(§3) Since correlations of the amount of produced formazan and the living cell count had been confirmed, the cell growth rate was calculated by the following formula. Cell growth rate (T/C %) after addition of test compound=100×[(B−C)/(A−C)] A: Absorbance of well not containing test compound (final culture day) B: Absorbance of well containing test compound (final culture day) C: Absorbance of well immediately before addition of test compound (following day of cell seeding)
(§4) Furthermore, the cell growth rate at each concentration of serially diluted test compound solutions was obtained, and the concentration of the test compound resulting in a 50% growth rate was obtained as the GI50 value from two concentrations including 50% therebetween and the growth rates were selected.

Experiment [3] concerns human ovary cancer cell strain IGROV1. Description: Cell growth inhibition test (MTT), IGROV1. The format is cell-based. To be noted: IGROV-1, 72 h, IGROV1, 3 days culture, read-out: concentration exhibiting anti-cell effect (GI50). How it is done: as §1, §2, §3, §4
Experiment [4] has as its system human colon cancer cell strain HT29. As to the kind of experiment: Cell growth inhibition test (MTT), HT29. The format is cell-based. The note with it: HT-29, 72 h, HT29, 3 days culture, read-out: concentration exhibiting anti-cell effect (GI50). How it is done:
as §1, §2, §3, §4

With `CNc1ncc(-c2nc(N3CCOCC3)c3nc(N4C[C@@H](C)N[C@@H](C)C4)n(CC4CC4)c3n2)cn1` [Example 16, 5-{9-(Cyclopropylmethyl)-8-(cis-3,5-dimethylpiperazin-1-yl)-6-morpholin-4-yl-9H-purin-2-yl}-N-methylpyrimidin-2-amine], the IC50 (usually the concentration that inhibits the measured activity by half) at PI3Kα lay in the range of 0.02 to 0.05 µM; in experiment [1], 0.03 to 0.1 µM. Also, the GI50 in experiment [2], in experiment [3] and in experiment [4] was no more than 5 µM throughout.
As to `C[C@@H]1CN(c2nc3c(N4CCOCC4)nc(-c4cnc(N)nc4)nc3n2CC2CCOC2)C[C@H](C)N1` (stereo partly drawn) [Example 17, 5-[8-(cis-3,5-Dimethylpiperazin-1-yl)-6-morpholin-4-yl-9-(tetrahydrofuran-3-ylmethyl)-9H-purin-2-yl]pyrimidin-2-amine], the values for the IC50 (on PI3Kα; in experiment [1]) were 0.02 to 0.05 µM and 0.1 to 0.5 µM, respectively. The GI50 in experiment [2], in experiment [3] and in experiment [4] was no more than 5 µM each time.
For `CNc1ncc(-c2nc(N3CCOCC3)c3nc(N4C[C@@H](C)N[C@@H](C)C4)n(CC4CCOC4)c3n2)cn1` (stereo partly drawn) [Example 18, 5-[8-(cis-3,5-Dimethylpiperazin-1-yl)-6-morpholin-4-yl-9-(tetrahydrofuran-3-ylmethyl)-9H-purin-2-yl]-N-methylpyrimidin-2-amine], the results for the IC50 (at PI3Kα; in experiment [1]) were 0.05 to 0.1 µM and 0.1 to 0.5 µM, respectively. Moreover, the GI50 in experiment [2], in experiment [3] and in experiment [4] was no more than 5 µM in each case.
`Nc1ncc(-c2nc(N3CCOCC3)c3nc(N4CCNCC4)n(CC4CC4)c3n2)cn1` [Example 19, 5-[9-(Cyclopropylmethyl)-6-morpholin-4-yl-8-piperazin-1-yl-9H-purin-2-yl]pyrimidin-2-amine]: the IC50 was in the range of 0.01 to 0.02 µM on PI3Kα and 0.03 to 0.1 µM in experiment [1]. For the same molecule, the GI50 in experiment [2], in experiment [3] and in experiment [4] was no more than 5 µM throughout.
Take `Nc1ncc(-c2nc(N3CCOCC3)c3nc(N4CCOCC4)n(CC4CC4)c3n2)cn1` [Example 20, 5-[9-(Cyclopropylmethyl)-6,8-dimorpholin-4-yl-9H-purin-2-yl]pyrimidin-2-amine]: the IC50 at PI3Kα lay within 0.01 to 0.02 µM; in experiment [1] it was 0.03 to 0.1 µM. For the same molecule, the GI50 in experiment [2], in experiment [3] and in experiment [4] was no more than 5 µM in each case.
Consider `Cc1nc(N)ncc1-c1nc(N2CCOCC2)c2nc(NCCN(C)C)n(CC3CC3)c2n1` [Example 21, N′-[2-(2-Amino-4-methylpyrimidin-5-yl)-9-(cyclopropylmethyl)-6-morpholin-4-yl-9H-purin-8-yl]-N,N-dimethylethane-1,2-diamine], for which the IC50 is 0.01 to 0.02 µM at PI3Kα and no less than 0.5 µM in experiment [1]. For the same molecule, the GI50 in experiment [2], in experiment [3] and in experiment [4] was no more than 5 µM in each case.
Consider `Cc1nc(N)ncc1-c1nc(N2CCOCC2)c2nc(NCCN3CCOCC3)n(CC3CC3)c2n1` [Example 22, 2-(2-Amino-4-methylpyrimidin-5-yl)-9-(cyclopropylmethyl)-6-morpholin-4-yl-N-(2-morpholin-4-ylethyl)-9H-purin-8-amine], for which the results for the IC50 (at PI3Kα; in experiment [1]) were 0.01 to 0.02 µM and no less than 0.5 µM, respectively. The GI50 in experiment [2], in experiment [3] and in experiment [4] was no more than 5 µM each time.
In the case of `Nc1ncc(-c2nc(N3CCOCC3)c3nc(N4CCOCC4)n(CC4CCOC4)c3n2)cn1` (stereo not drawn) [Example 23, 5-[6,8-Dimorpholin-4-yl-9-(tetrahydrofuran-3-ylmethyl)-9H-purin-2-yl]pyrimidin-2-amine], the values for the IC50 (on PI3Kα; in experiment [1]) were 0.02 to 0.05 µM and 0.03 to 0.1 µM, respectively. Moreover, the GI50 in experiment [2], in experiment [3] and in experiment [4] was no more than 5 µM each time.
For the molecule `CNc1ncc(-c2nc(N3CCOCC3)c3nc(N4CCOCC4)n(CC4CCOC4)c3n2)cn1` (stereo not drawn) [Example 24, 5-[6,8-Dimorpholin-4-yl-9-(tetrahydrofuran-3-ylmethyl)-9H-purin-2-yl]-N-methylpyrimidin-2-amine], the results for the IC50 (on PI3Kα; in experiment [1]) were 0.05 to 0.1 µM and 0.1 to 0.5 µM, respectively. In addition, the GI50 in experiment [2], in experiment [3] and in experiment [4] was no more than 5 µM in each case.
